Tested on: Murine erythroleukemia (MEL) cells
Test: MEL cell differentiation assay (benzidine assay, 5-day culture)
Type: cell-based
Settings: Table 2, "No inh" = words
Description: (§1) Murine erythroleukemia (MEL) cell differentiation. The MEL cell differentiation assay was used to assess the ability of Compound 1 to induce terminal differentiation. MEL cells (logarithmically dividing) were cultured with the indicated concentrations of Compound 1. Following a 5-day culture period, cell growth was determined using a Coulter Counter and differentiation was determined microscopically using the benzidine assay to determine hemoglobin protein accumulation on a per cell basis.
as §1, with “The” for “Murine erythroleukemia (MEL) cell differentiation. The”, “2” for “1”, “2.” for “1.”, “period” for “period, cell growth was determined using a Coulter Counter and”
as §1, with “The” for “Murine erythroleukemia (MEL) cell differentiation. The”, “3” for “1”, “3.” for “1.”, “period” for “period, cell growth was determined using a Coulter Counter and”
as §1, with “The” for “Murine erythroleukemia (MEL) cell differentiation. The”, “4” for “1”, “4.” for “1.”, “period” for “period, cell growth was determined using a Coulter Counter and”, “accumulaiton” for “accumulation”
All the compounds which were prepared were tested. […] Table 2 is compiled from experiments similar to the experiments described in Examples 7-10 above.

SMILES	MEL cell growth (cell count) [cells/ml × 10^−5]
O=C(/C=C/c1cccc(CC(=O)Nc2ccccc2)c1)NO [Structure 689]	2.0
O=C(CCCCCC(C(=O)Nc1ccc2ncccc2c1)C(=O)Nc1ccc2ncccc2c1)NO [Structure 692]	18.0
O=C(/C=C/c1cccc(C(C(=O)Nc2cccc3cccnc23)C(=O)Nc2cccc3cccnc23)c1)NO [Structure 690]	2.5

— patent US20040002506A1, “Novel class of cytodifferentiating agents and histone deacetylase inhibitors, and methods of use thereof” (Sloan Kettering Institute for Cancer Research, priority 1999, published 2004)
